≈ marks a conversion by molar mass, not a printed value.

Assay [1] has as its system Raw 264.7 cells infected with H37Rv-GFP. Kind of assay: microbe, parasite or virus in culture. Type of assay: cell-based, M. tuberculosis. The settings on record: for MIC50: Mycobacterium tuberculosis, H37RV, 120 h, read-out: QIM (MIC50).
Assay [2] concerns M. tuberculosis H37Rv expressing the green fluorescent protein (H37Rv-GFP). Kind of assay: microbe, parasite or virus in culture. Format: cell-based. The conditions noted are these: for MIC50: Mycobacterium tuberculosis, H37RV, 120 h, read-out: QUM (MIC50).

As for `CN(C)C(=O)C1CCN(c2nc3sc(C(=O)Nc4ccc(-c5ccc(F)cc5)cn4)cc3s2)CC1` [Compound 246], the figures for the MIC50 in assay [1] and in assay [2] were under 1 µM and 1 to 20 µM (≈ 0.51 to 10.2 µg/mL), respectively.
For `O=C(Nc1ccc(F)cc1)c1cc2sc(NCCN3CCOCC3)nc2s1` [Compound 302] the same measures were under 1 µM and 1 to 20 µM (≈ 0.407 to 8.13 µg/mL).
For `CN(C)C(=O)[C@H]1CCN(c2nc3sc(C(=O)Nc4ccc(-c5ccc(F)nc5)cc4)cc3s2)C1` [Compound 298] the same measures were under 1 µM and under 1 µM.
With `O=C(Nc1ccc(-c2ccc(F)cn2)cc1)c1cc2sc(NCCCN3CCOCC3)nc2s1` [Compound 328], the MIC50 in assay [1] and in assay [2] was under 1 µM throughout.
Regarding `O=C(Nc1ccc(F)cc1)c1cc2sc(NC3CCCNC3)nc2s1` (centres unmarked) [Compound 310], the MIC50 in assay [1] and in assay [2] was over 20 µM in each case.
As for `CS(=O)(=O)O.CS(=O)(=O)O.O=C(Nc1ccc(-c2ccc(F)cn2)cc1)c1cc2sc(NCCN3CCOCC3)nc2s1` [Compound 360], the “QIM (MIC50, uM)” value in assay [1] is given as “+++ (+++ indicates <1 uM)”. Further, the MIC50 in assay [2] is under 1 µM.
Turning to `Cc1nc2cc(NC(=O)c3sc4nc(N5CCOCC5)sc4c3OCc3ccccc3)ccc2o1` [Compound 185], the MIC50 in assay [1] and in assay [2] was over 20 µM each time.
As for `Cc1nc2cc(NC(=O)c3cc4sc(N(CCO)C5CCCCC5)nc4s3)ccc2o1` [Compound 227], the MIC50 in assay [1] is over 20 µM; in assay [2], 1 to 20 µM (≈ 0.457 to 9.13 µg/mL).
For `CN(C)C(=O)C1CCN(c2nc3sc(C(=O)Nc4ccc(-c5ccc(C(F)(F)F)nc5)cc4)cc3s2)CC1` [Compound 209], in that order: under 1 µM and under 1 µM.
For `Cc1nc2cc(NC(=O)c3cc4sc(N(C)CC(O)C(F)(F)F)nc4s3)ccc2o1` (centres unmarked) [Compound 261], in that order: under 1 µM and under 1 µM.
For `Cc1nc2cc(NC(=O)c3cc4sc(N(CCO)C(C)C)nc4s3)ccc2o1` [Compound 232] the same measures were under 1 µM and 1 to 20 µM (≈ 0.417 to 8.33 µg/mL).
As for `O=C(Nc1ccc(N2CCC(O)(Cc3ccccc3)CC2)cc1)c1cc2sc(NCCN3CCOCC3)nc2s1` [Compound 294], the figures for the MIC50 in assay [1] and in assay [2] were under 1 µM and over 20 µM, respectively.
For `Cn1ccc(-c2ccc(NC(=O)c3cc4sc(N5CCNCC5)nc4s3)cc2)n1` [Compound 343] the same measures were under 1 µM and 1 to 20 µM (≈ 0.425 to 8.49 µg/mL).
For the compound `Cn1ccc(-c2ccc(NC(=O)c3cc4sc(NCCN5CCOCC5)nc4s3)cc2)n1` [Compound 319], the MIC50 in assay [1] is under 1 µM; in assay [2], 1 to 20 µM (≈ 0.469 to 9.37 µg/mL).
For `O=C(Nc1ccc(F)cc1)c1cc2sc(NC3CCN(Cc4ccc(F)cc4)CC3)nc2s1` [Compound 314] the same measures were under 1 µM and under 1 µM.
Take `CC1CCN(c2ccc(NC(=O)c3cc4sc(NCCOc5ccc(Cl)cc5)nc4s3)cc2)CC1` [Compound 347]: the MIC50 in assay [1] and in assay [2] was over 20 µM throughout.
Consider `O=C(Nc1ccc(-c2ccc(F)nc2)cc1)c1cc2sc(N3CCNCC3)nc2s1` [Compound 289], for which the MIC50 in assay [1] is under 1 µM; in assay [2], 1 to 20 µM (≈ 0.44 to 8.79 µg/mL).
For `Cc1nc2cc(NC(=O)c3cc4sc(N5CCC(Nc6ccc(F)cc6)CC5)nc4s3)ccc2o1` [Compound 320] the same measures were under 1 µM and 1 to 20 µM (≈ 0.508 to 10.2 µg/mL).
For `Cc1nc2cc(NC(=O)c3cc4sc(NCCN5CCOCC5)nc4s3)ccc2o1` [Compound 224], in that order: under 1 µM and 1 to 20 µM (≈ 0.444 to 8.87 µg/mL).
Turning to `CN(CCCO)c1nc2sc(C(=O)Nc3ccc(-c4ccc(F)nc4)cc3)cc2s1` [Compound 291], the MIC50 in assay [1] and in assay [2] was under 1 µM in each case.
For `COc1ccc(NC(=O)c2cc3nc(N4CCOCC4)sc3s2)cc1` [Compound 27], the MIC50 in assay [1] was 1 to 20 µM (≈ 0.375 to 7.51 µg/mL); in assay [2], over 20 µM.
Turning to `O=C(Nc1ccc(F)cn1)c1cc2sc(N3CCOCC3)nc2s1` [Compound 105], the MIC50 was under 1 µM in assay [1] and 1 to 20 µM (≈ 0.364 to 7.29 µg/mL) in assay [2].
For `O=C(Nc1ccc(F)cc1)c1cc2sc(NC3CCNCC3)nc2s1` [Compound 312], in that order: over 20 µM and over 20 µM.
For `CC1CCN(c2ccc(NC(=O)c3cc4sc(N5CCNCC5)nc4s3)cc2)CC1` [Compound 344], in that order: under 1 µM and 1 to 20 µM (≈ 0.442 to 8.83 µg/mL).
For `COCCN(C)c1nc2sc(C(=O)Nc3ccc(-c4ccc(F)nc4)cc3)cc2s1` [Compound 271] the same measures were under 1 µM and under 1 µM.
For the compound `CN(CCO)c1nc2sc(C(=O)Nc3ccc(-c4ccc(F)nc4)cc3)cc2s1` [Compound 272], the MIC50 in assay [1] and in assay [2] was under 1 µM each time.
For the compound `COc1ccc(NC(=O)c2cc3sc(N4CCNCC4)nc3s2)cc1` [Compound 92], the MIC50 in assay [1] and in assay [2] was 1 to 20 µM (≈ 0.374 to 7.49 µg/mL) each time.
For `O=C(Nc1ccc(-c2ccc(F)nc2)cc1)c1cc2sc(NCCN3CCCCC3)nc2s1` [Compound 329], the results for the MIC50 in assay [1] and in assay [2] were under 1 µM and 1 to 20 µM (≈ 0.482 to 9.63 µg/mL), respectively.
For `O=C(Nc1ccc(N2CCC(Oc3ccc(F)cc3)CC2)cc1)c1cc2sc(N3CCOCC3)nc2s1` [Compound 220], in that order: under 1 µM and over 20 µM.
For `COCCN(C)c1nc2sc(C(=O)Nc3ccc(-c4ccc(C)cn4)cc3)cc2s1` [Compound 262] the same measures were under 1 µM and under 1 µM.
For `Cc1nc2cc(NC(=O)c3cc4sc(N5CCC(Oc6ccc(Cl)cc6)CC5)nc4s3)ccc2o1` [Compound 207] the same measures were under 1 µM and 1 to 20 µM (≈ 0.525 to 10.5 µg/mL).
In the case of `O=C(Nc1ccc(F)cc1)c1cc2sc(NCC(O)C(F)(F)F)nc2s1` (centres unmarked) [Compound 330], the values for the MIC50 in assay [1] and in assay [2] were under 1 µM and 1 to 20 µM (≈ 0.405 to 8.11 µg/mL), respectively.
Consider `CCc1ccc(NC(=O)c2cc3nc(N4CCCCC4)sc3s2)cc1` [Compound 12], for which the MIC50 in assay [1] and in assay [2] was over 20 µM in each case.
Consider `CN(C)C(=O)C1CCN(c2nc3sc(C(=O)Nc4ccc5oc(-c6ccc(Cl)cc6)nc5c4)cc3s2)CC1` [Compound 214], for which the MIC50 in assay [1] was under 1 µM; in assay [2] it was over 20 µM.
Turning to `Cc1ccc(-c2ccc(NC(=O)c3cc4sc(N5CCC(C(=O)N(C)C)CC5)nc4s3)cc2)nc1.Cl` [Compound 258], in assay [1], the “QIM (MIC50, uM)” value is reported as “+++ (+++ indicates <1 uM)”. Further, the “QUM (MIC50, uM)” value in assay [2] is “++ (++ indicates between 1-20 uM)”.
`O=C(Nc1ccc(N2CCC(C(=O)c3ccc(Cl)cc3)CC2)cc1)c1cc2sc(N3CCOCC3)nc2s1` [Compound 226]: the results for the MIC50 in assay [1] and in assay [2] were under 1 µM and over 20 µM, respectively.
For `Cc1nnc(-c2ccc(NC(=O)c3cc4sc(N5CCC(C(=O)N(C)C)CC5)nc4s3)cc2)o1` [Compound 184], in that order: over 20 µM and over 20 µM.
For `Cc1ccc(-c2ccc(NC(=O)c3cc4sc(N5CCC(C(=O)N(C)C)CC5)nc4s3)cc2)cn1` [Compound 204], in that order: under 1 µM and under 1 µM.
For `O=C(Nc1ccc(N2CCC(Oc3ccc(Cl)cc3)CC2)cc1)c1cc2sc(N3CCOCC3)nc2s1` [Compound 193], in that order: under 1 µM and over 20 µM.
With `COCCN(c1nc2sc(C(=O)Nc3ccc4oc(C)nc4c3)cc2s1)C(C)C` [Compound 242], the MIC50 in assay [1] is under 1 µM; in assay [2] it was 1 to 20 µM (≈ 0.431 to 8.61 µg/mL).

The record behind these values is patent publication US11279714B2, “Anti-infective compounds” (priority 2014, dated 2022).
